In patent publication US20220340597A1, “HEXAHYDRO-1H-PYRAZINO[1,2-A]PYRAZINE COMPOUNDS FOR THE TREATMENT OF AUTOIMMUNE DISEASE” (Hoffmann-La Roche Inc., priority 2019, published 2022):

Experiments:
[1] = target: T1, human TLR7 (Homo sapiens, UniProt Q9NYK1); assay: HEK293-Blue-hTLR-7 cells assay; format: cell-based; conditions: HEK293-Blue-hTLR7 cells, R848 stimulation, 20 hrs, SEAP reporter; read-out: HEK/hTLR7 IC50
T1 construct: host or cells: HEK293 (HEK-Blue hTLR7)
T1 sequence (Q9NYK1 27-1049): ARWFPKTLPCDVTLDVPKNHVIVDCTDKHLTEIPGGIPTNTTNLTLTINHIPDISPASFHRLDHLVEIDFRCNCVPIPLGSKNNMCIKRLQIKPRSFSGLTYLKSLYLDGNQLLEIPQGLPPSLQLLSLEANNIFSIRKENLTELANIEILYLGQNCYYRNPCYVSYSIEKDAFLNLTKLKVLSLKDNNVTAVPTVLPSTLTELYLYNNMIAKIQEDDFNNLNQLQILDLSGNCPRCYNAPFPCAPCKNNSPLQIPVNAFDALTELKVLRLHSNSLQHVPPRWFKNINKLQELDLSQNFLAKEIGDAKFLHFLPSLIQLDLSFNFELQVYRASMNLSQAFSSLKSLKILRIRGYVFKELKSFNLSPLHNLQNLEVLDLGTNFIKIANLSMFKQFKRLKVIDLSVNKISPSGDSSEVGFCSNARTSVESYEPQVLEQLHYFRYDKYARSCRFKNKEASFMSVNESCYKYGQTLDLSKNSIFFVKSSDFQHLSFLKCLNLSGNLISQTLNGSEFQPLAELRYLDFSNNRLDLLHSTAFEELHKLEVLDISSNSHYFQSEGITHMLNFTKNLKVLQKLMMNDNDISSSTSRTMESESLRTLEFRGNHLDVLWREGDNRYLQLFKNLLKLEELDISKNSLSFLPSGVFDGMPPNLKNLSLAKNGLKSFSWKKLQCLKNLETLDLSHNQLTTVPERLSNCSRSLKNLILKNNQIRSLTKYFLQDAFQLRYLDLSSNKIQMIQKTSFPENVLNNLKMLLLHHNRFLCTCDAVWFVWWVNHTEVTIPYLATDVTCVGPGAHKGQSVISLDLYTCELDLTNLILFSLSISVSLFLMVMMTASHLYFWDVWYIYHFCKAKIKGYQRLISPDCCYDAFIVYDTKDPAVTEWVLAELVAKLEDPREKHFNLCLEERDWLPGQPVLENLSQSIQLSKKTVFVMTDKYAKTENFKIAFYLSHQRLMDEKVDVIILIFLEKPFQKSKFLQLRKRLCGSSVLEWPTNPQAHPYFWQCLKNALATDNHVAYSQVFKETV
Protocol: The following tests were carried out in order to determine the activity of the compounds of formula (I) and (Ia) in HEK293-Blue-hTLR-7/8/9 cells assay.
HEK293-Blue-hTLR-7 cells assay:
A stable HEK293-Blue-hTLR-7 cell line was purchased from InvivoGen (Cat. #: hkb-htlr7, San Diego, Calif., USA). These cells were originally designed for studying the stimulation of human TLR7 by monitoring the activation of NF-κB. A SEAP (secreted embryonic alkaline phosphatase) reporter gene was placed under the control of the […] minimal promoter fused to five NF-κB and AP-1-binding sites. The SEAP was induced by activating NF-κB and AP-1 via stimulating HEK-Blue hTLR7 cells with TLR7 ligands. Therefore, the reporter expression was declined by TLR7 antagonist under the stimulation of a ligand, such as R848 (Resiquimod), for incubation of 20 hrs. The cell culture supernatant SEAP reporter activity was determined using QUANTI-Blue™ kit (Cat. #: rep-qb1, Invivogen, San Diego, Calif., USA) at a wavelength of 640 nm, a detection medium that turns purple or blue in the presence of alkaline phosphatase.
Then 20 μL of the supernatant from each well was incubated with […] Quanti-blue substrate solution at 37° C. for 2 hrs and the absorbance was read at 620-655 nm using a spectrophotometer. The signaling pathway that TLR7 activation leads to downstream NF-κB activation has been widely accepted, and therefore similar reporter assay was modified for evaluating TLR7 antagonist.

[2] = target: T2, human TLR8 (Homo sapiens, UniProt Q9NR97); assay: HEK293-Blue-hTLR-8 cells assay
T2 sequence (Q9NR97 27-1041): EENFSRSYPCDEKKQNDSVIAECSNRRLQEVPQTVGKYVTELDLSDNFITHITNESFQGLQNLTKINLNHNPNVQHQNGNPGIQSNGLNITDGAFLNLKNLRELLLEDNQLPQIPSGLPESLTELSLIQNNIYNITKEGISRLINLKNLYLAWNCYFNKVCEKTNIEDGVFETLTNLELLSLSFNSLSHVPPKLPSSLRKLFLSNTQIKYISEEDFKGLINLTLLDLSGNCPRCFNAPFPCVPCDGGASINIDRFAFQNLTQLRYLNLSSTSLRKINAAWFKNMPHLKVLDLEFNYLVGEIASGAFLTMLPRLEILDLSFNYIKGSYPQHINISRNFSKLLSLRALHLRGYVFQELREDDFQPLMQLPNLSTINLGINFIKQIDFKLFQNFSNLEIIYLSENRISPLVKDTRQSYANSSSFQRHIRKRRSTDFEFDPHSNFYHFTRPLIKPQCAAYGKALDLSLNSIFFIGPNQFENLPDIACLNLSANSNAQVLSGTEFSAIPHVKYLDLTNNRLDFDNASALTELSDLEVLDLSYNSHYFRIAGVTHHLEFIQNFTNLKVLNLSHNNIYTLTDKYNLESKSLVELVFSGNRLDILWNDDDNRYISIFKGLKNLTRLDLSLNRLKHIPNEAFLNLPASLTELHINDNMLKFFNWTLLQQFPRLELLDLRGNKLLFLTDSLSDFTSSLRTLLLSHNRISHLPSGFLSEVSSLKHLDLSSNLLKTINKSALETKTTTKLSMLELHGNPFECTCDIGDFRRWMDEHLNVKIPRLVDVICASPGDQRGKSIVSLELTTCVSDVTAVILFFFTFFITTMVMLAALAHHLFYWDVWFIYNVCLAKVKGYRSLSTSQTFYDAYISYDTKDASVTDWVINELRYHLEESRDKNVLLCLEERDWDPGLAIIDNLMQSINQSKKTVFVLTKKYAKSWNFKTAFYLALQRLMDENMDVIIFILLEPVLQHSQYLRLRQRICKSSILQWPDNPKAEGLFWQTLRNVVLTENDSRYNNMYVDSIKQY
Description: HEK293-Blue-hTLR-8 Cells Assay:
A stable HEK293-Blue-hTLR-8 cell line was purchased from InvivoGen (Cat. #: hkb-htlr8, San Diego, Calif., USA). These cells were originally designed for studying the stimulation of human TLR8 by monitoring the activation of NF-κB. A SEAP (secreted embryonic alkaline phosphatase) reporter gene was placed under the control of the IFN-β minimal promoter fused to five NF-κB and AP-1-binding sites. The SEAP was induced by activating NF-κB and AP-1 via stimulating HEK-Blue hTLR8 cells with TLR8 ligands. Therefore, the reporter expression was declined by TLR8 antagonist under the stimulation of a ligand, such as R848, for incubation of 20 hrs. The cell culture supernatant SEAP reporter activity was determined using QUANTI-Blue™ kit (Cat. #: rep-qb1, Invivogen, San Diego, Calif., USA) at a wavelength of 640 nm, a detection medium that turns purple or blue in the presence of alkaline phosphatase.

SMILES | IC50 [1] | IC50 [2]
C[C@@H]1CN(c2ccc(C#N)c3ncccc23)C[C@@H]2CN(Cc3ccc4c(c3)CNCC4)CCN21 [Example 5, 5-[(4R,9aS)-4-methyl-8-(1,2,3,4-tetrahydroisoquinolin-7-ylmethyl)-3,4,6,7,9,9a-hexahydro-1H-pyrazino[1,2-a]pyrazin-2-yl]quinoline-8-carbonitrile] | 17 nM | 12 nM
C[C@@H]1CN(c2ccc(C#N)c3ncccc23)C[C@@H]2CN(Cc3cnc4c(c3)CNCC4)CCN21 [Example 6, 5-[(4R,9aS)-4-methyl-8-(5,6,7,8-tetrahydro-1,6-naphthyridin-3-ylmethyl)-3,4,6,7,9,9a-hexahydro-1H-pyrazino[1,2-a]pyrazin-2-yl]quinoline-8-carbonitrile] | 14 nM | 14 nM
C[C@@H]1CN(c2ccc(C#N)c3ncccc23)C[C@@H]2CN(CCc3ccc(N4CCNCC4)cc3)CCN21 [Example 7, 5-[(4R,9aS)-4-methyl-8-[2-(4-piperazin-1-ylphenyl)ethyl]-3,4,6,7,9,9a-hexahydro-1H-pyrazino[1,2-a]pyrazin-2-yl]quinoline-8-carbonitrile] | 5 nM | 30 nM
C[C@@H]1CN(c2ccc(C#N)c3ncccc23)C[C@@H]2CN(Cc3ccc4c(c3)CCNC4)CCN21 [Example 10, 5-[(4R,9aS)-4-methyl-8-(1,2,3,4-tetrahydroisoquinolin-6-ylmethyl)-3,4,6,7,9,9a-hexahydro-1H-pyrazino[1,2-a]pyrazin-2-yl]quinoline-8-carbonitrile] | 26 nM | 12 nM
CO[C@@H]1CN(c2ccc(CCN3CCN4[C@@H](C3)CN(c3ccc(C#N)c5ncccc35)C[C@H]4C)cn2)C[C@H]1N [Example 12, 5-[(4R,9aS)-8-[2-[6-[(3R,4R)-3-amino-4-methoxy-pyrrolidin-1-yl]-3-pyridyl]ethyl]-4-methyl-3,4,6,7,9,9a-hexahydro-1H-pyrazino[1,2-a]pyrazin-2-yl]quinoline-8-carbonitrile] | 12 nM | 14 nM
CO[C@@H]1CN(c2ccc(CCN3CCN4[C@@H](C3)CN(c3ccc(C#N)c5ncccc35)C[C@H]4C)nc2)C[C@H]1N [Example 13, 5-[(4R,9aS)-8-[2-[5-[(3R,4R)-3-amino-4-methoxy-pyrrolidin-1-yl]-2-pyridyl]ethyl]-4-methyl-3,4,6,7,9,9a-hexahydro-1H-pyrazino[1,2-a]pyrazin-2-yl]quinoline-8-carbonitrile] | 26 nM | 9 nM
C[C@@H]1CN(c2ccc(C#N)c3ncccc23)C[C@@H]2CN(Cc3ccc(N4CCCNCC4)nc3)CCN21 [Example 15, 5-[(4R,9aS)-8-[[6-(1,4-diazepan-1-yl)-3-pyridyl]methyl]-4-methyl-3,4,6,7,9,9a-hexahydro-JH-pyrazino[1,2-a]pyrazin-2-yl]quinoline-8-carbonitrile] | 49 nM | 28 nM
C[C@@H]1CN(c2ccc(C#N)c3ncccc23)C[C@@H]2CN(c3nccc4c3CCNC4)CCN21 [Example 16, 5-[(4R,9aR)-4-methyl-8-(5,6,7,8-tetrahydro-2,6-naphthyridin-1-yl)-3,4,6,7,9,9a-hexahydro-1H-pyrazino[1,2-a]pyrazin-2-yl]quinoline-8-carbonitrile] | 6 nM | 9 nM
C[C@@H]1CN(c2ccc(C#N)c3ncccc23)C[C@@H]2CN(CCc3ccc(N4C[C@@H](N)[C@@H](F)C4)cn3)CCN21 [Example 19, 5-[(4R,9aS)-8-[2-[5-[(3R,4S)-3-amino-4-fluoro-pyrrolidin-1-yl]-2-pyridyl]ethyl]-4-methyl-3,4,6,7,9,9a-hexahydro-1H-pyrazino[1,2-a]pyrazin-2-yl]quinoline-8-carbonitrile] | 10 nM | 31 nM

More lines, in order of falling IC50 [1], values ahead:

IC50 [1] | IC50 [2] | SMILES
22 nM | 52 nM | C[C@@H]1CN(c2ccc(C#N)c3ncccc23)C[C@@H]2CN(Cc3ccc(N4CCNCC4)nc3)CCN21 [Example 8, 5-[(4R,9aS)-4-methyl-8-[(6-piperazin-1-yl-3-pyridyl)methyl]-3,4,6,7,9,9a-hexahydro-1H-pyrazino[1,2-a]pyrazin-2-yl]quinoline-8-carbonitrile]
19 nM | 53 nM | C[C@@H]1CN(c2ccc(C#N)c3ncccc23)C[C@@H]2CN(CCc3cccc(N4CCN[C@@H](C)C4)n3)CCN21 [Example 21, 5-[(4R,9aS)-4-methyl-8-[2-[6-[(3S)-3-methylpiperazin-1-yl]-2-pyridyl]ethyl]-3,4,6,7,9,9a-hexahydro-1H-pyrazino[1,2-a]pyrazin-2-yl]quinoline-8-carbonitrile]
14 nM | 51 nM | C[C@@H]1CN(c2ccc(C#N)c3ncccc23)C[C@@H]2CN(CCc3ccc(N4CCN[C@@H](C)C4)cn3)CCN21 [Example 20, 5-[(4R,9aS)-4-methyl-8-[2-[5-[(3S)-3-methylpiperazin-1-yl]-2-pyridyl]ethyl]-3,4,6,7,9,9a-hexahydro-1H-pyrazino[1,2-a]pyrazin-2-yl]quinoline-8-carbonitrile]
7 nM | 21 nM | C[C@@H]1CN(c2ccc(C#N)c3ncccc23)C[C@@H]2CN(CCc3ccc(N4CCNCC4)nc3)CCN21 [Example 11, 5-[(4R,9aS)-4-methyl-8-[2-(6-piperazin-1-yl-3-pyridyl)ethyl]-3,4,6,7,9,9a-hexahydro-1H-pyrazino[1,2-a]pyrazin-2-yl]quinoline-8-carbonitrile]
3 nM | 1 nM | C[C@@H]1CN(c2ccc(C#N)c3ncccc23)C[C@@H]2CN(c3cccc4c3CNC4)CCN21 [Example 9, 5-[(4R,9aS)-8-isoindolin-4-yl-4-methyl-3,4,6,7,9,9a-hexahydro-1H-pyrazino[1,2-a]pyrazin-2-yl]quinoline-8-carbonitrile]
